Assay results as given in PubChem BioAssay (NCI).
Values joined by “and” are separate entries in the source; they are usually repeats but may differ in a detail not shown here. Identical values can stand only once.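 These data come from cells grown in 96-well plates and exposed to compound for 48 hours at five concentrations. GI50 marks 50% less growth. The concentration for full growth arrest is given as TGI.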

What was measured:
Test in all cases: NCI tumour cell line growth inhibition, 48 h
HCC-2998 colon = system: HCC-2998 colon
K-562 leukemia = system: K-562 leukemia
LOX IMVI melanoma = system: LOX IMVI melanoma
OVCAR-5 ovarian = system: OVCAR-5 ovarian
SF-539 CNS = system: SF-539 CNS
U251 CNS = system: U251 CNS
EKVX NSCLC = system: EKVX NSCLC
HL-60(TB) leukemia = system: HL-60(TB) leukemia
KM12 colon = system: KM12 colon
DU-145 prostate = system: DU-145 prostate

Structure (SMILES)	TGI (HCC-2998 colon)	TGI (K-562 leukemia) [µM]	TGI (LOX IMVI melanoma)	TGI (OVCAR-5 ovarian)	TGI (SF-539 CNS)	TGI (U251 CNS)	TGI (EKVX NSCLC) [µM]	TGI (HL-60(TB) leukemia)	TGI (KM12 colon)	TGI (DU-145 prostate) [µM]	GI50 (DU-145 prostate) [µM]	GI50 (EKVX NSCLC) [µM]	GI50 (HL-60(TB) leukemia) [µM]	GI50 (K-562 leukemia)	GI50 (KM12 colon) [µM]	GI50 (LOX IMVI melanoma) [µM]	GI50 (U251 CNS)	GI50 (HCC-2998 colon)	GI50 (OVCAR-5 ovarian) [µM]	GI50 (SF-539 CNS) [µM]
O=C(Nc1ccccc1)O/N=C1/CCCC/C1=C\c1ccccc1	41.7 µM	29.1	34 µM	63.9 µM	31.7 µM	30.2 µM														
Nc1ccc(CCN2CCN(c3cccc(C(F)(F)F)c3)CC2)cc1	> 100 µM	> 100	> 100 µM	> 100 µM	> 100 µM	> 100 µM	> 100	41.8 µM	> 100 µM											
O=C(O)C1CCCN1Cc1c[nH]c2ccccc12 (stereo unspecified)		> 100	> 100 µM	> 100 µM	> 100 µM	> 100 µM	> 100	> 100 µM	> 100 µM	> 100										
N#Cc1c2ccccc2c2nnc3cc(C(F)(F)F)ccc3n12		> 100	62.9 µM			> 100 µM	> 100	> 100 µM	> 100 µM	> 100	58.4	> 100	58.6	48.3 µM	> 100	21.7	51.2 µM			
Cc1ccc2c(/C=C/C(=O)c3cc(CN4CCOCC4)c(O)c4nc(C)ccc34)cc(CN3CCOCC3)c(O)c2n1	2.76 µM	17.1	1.79 µM	13.1 µM	2.02 µM	2.58 µM	13.6	0.677 µM	2.24 µM			2.1	0.272	0.355 µM	0.558	0.454	0.412 µM	1.1 µM	1.55	0.459
O=C(c1ccccc1)c1ccc2cccc(O)c2n1	> 100 µM	> 100	28 µM	> 100 µM	> 100 µM	68.3 µM	69		> 100 µM											
COC(=O)C1Cc2c(n(C)c3ccccc23)C(c2ccccc2)N1 (stereo unspecified)	> 100 µM	> 100	> 100 µM	> 100 µM		> 100 µM	> 100	48 µM	> 100 µM											
NC(=O)c1csc(C2O[C@@H](COP(=O)(O)OP(=O)(O)OC[C@H]3OC(n4cnc5c(N)ncnc54)[C@H](O)[C@@H]3O)[C@H](O)[C@@H]2O)n1 (stereo partly specified)	> 100 µM	> 100	> 100 µM	> 100 µM	> 100 µM	> 100 µM	> 100	> 100 µM	> 100 µM											
Nc1nc(SCC(=O)O)[nH]c(=O)c1N		36.9	42.8 µM	> 100 µM	> 100 µM	> 100 µM	> 100	> 100 µM	> 100 µM	> 100										
CC(C)(C)C(=O)Nc1ccccc1Br	> 100 µM	> 100	> 100 µM	> 100 µM		> 100 µM	> 100	> 100 µM	> 100 µM											
COC1CCC2C(=O)CCCC2O1 (stereo unspecified)	> 100 µM	> 100		> 100 µM	> 100 µM	> 100 µM	> 100	> 100 µM	> 100 µM											
CCOC(=O)Oc1c(OC)cc(C(=O)c2ccc(OC)c(OC(=O)CCl)c2OC)cc1OC	> 100 µM	> 100	> 100 µM	> 100 µM	6.38 µM	> 100 µM	> 100		> 100 µM	> 100	1.83	3.63		0.457 µM	0.543	0.677	0.926 µM	3.36 µM	5.88	0.805
COc1ccc(-c2nc3sccn3c2/C=C/C(=O)c2cc(OC)c(OC)c(OC)c2)cc1OC	4.79 µM	> 100	10 µM	7.02 µM	3.74 µM		> 100	4.98 µM	4.53 µM			3.92	1.84	2.41 µM	2.04	2.6		2.72 µM	2.45	1.78
O=C(Nc1cccc(C2=NCCN2)c1)c1ccc(OCCCOc2ccc(C(=O)Nc3cccc(C4=NCCN4)c3)cc2)cc1		> 100		20.4 µM				> 100 µM					2.3	1.25 µM					3.51	
COC(=O)C/C(C)=C/[C@@H](O)[C@H]1O[C@@H]2CC/C(Cl)=C/C/C=C(/C)[C@H](OC(C)=O)CC(=O)O[C@@H]1C2		> 25	11.2 µM	> 25 µM	7.95 µM	13.2 µM	14.3	11.9 µM	9.63 µM	> 25	1.29	4.93	1.8	4.34 µM	2.64	1.97	4.55 µM		8.17	1.32
CC1=C(C(=O)Nc2ccc(F)c(Cl)c2)C(c2cccc(O)c2)NC(=S)N1 (stereo unspecified)		42.5	41 µM	> 50 µM		> 50 µM	> 50	> 50 µM	35.8 µM	> 50	> 50	17.8	25.8	16 µM	10.8	13.7	16.6 µM		17	
Clc1ccc(Nc2ccnc(NCCNc3ccnc4cc(Cl)ccc34)n2)cc1	2.59 µM	1.87	2.62 µM	2.45 µM	2.8 µM	2.67 µM		4.92 µM	3.06 µM	2.97	1.59		2.09	0.501 µM	1.62	1.29	1.33 µM	1.22 µM	1.16	1.3
CCCCCCC(O)C/C=C/CCCCCC/C(C(=O)OC)=C(/O)C(=O)OCC (stereo unspecified)	> 100 µM	> 100	> 100 µM	> 100 µM	> 100 µM	> 100 µM	> 100	> 100 µM	> 100 µM											
CN(C)CCN1N=Nc2cccc3cccc1c23	> 100 µM	> 100	> 100 µM	> 100 µM	> 100 µM	> 100 µM	> 100	> 70.8 µM	> 100 µM											
COc1ccc(/C=C\c2cc(OC)c(OC)c(OC)c2)cc1NC(=O)[C@@H](N)CO	> 100 µM	> 100	> 100 µM	> 100 µM	0.0649 µM	> 100 µM		0.758 µM	> 100 µM	> 100	0.0288		< 0.0178	< 0.01 µM	< 0.0129	0.0376	0.0165 µM	0.0199 µM	< 0.023	0.0145

Structure (SMILES)	TGI (HCC-2998 colon)	TGI (K-562 leukemia) [µM]	TGI (LOX IMVI melanoma)	TGI (OVCAR-5 ovarian)	TGI (SF-539 CNS)	TGI (U251 CNS)	TGI (EKVX NSCLC) [µM]	TGI (HL-60(TB) leukemia)	TGI (KM12 colon)	TGI (DU-145 prostate) [µM]	GI50 (DU-145 prostate) [µM]	GI50 (EKVX NSCLC) [µM]	GI50 (HL-60(TB) leukemia) [µM]	GI50 (K-562 leukemia)	GI50 (KM12 colon) [µM]	GI50 (LOX IMVI melanoma) [µM]	GI50 (U251 CNS)	GI50 (HCC-2998 colon)	GI50 (OVCAR-5 ovarian) [µM]	GI50 (SF-539 CNS) [µM]
O=[N+]([O-])c1ccc2c(c1)OCCOCCOc1ccc([N+](=O)[O-])cc1OCCOCCO2	> 100 µM	> 100	> 100 µM	> 100 µM	> 100 µM	> 100 µM	> 100	> 100 µM	> 100 µM											
Cc1cc(N(CCC#N)CCC#N)ccc1N=Nc1ccccc1[N+](=O)[O-]	> 100 µM	> 100	> 100 µM	> 100 µM	> 100 µM	> 100 µM	> 100	> 100 µM	> 100 µM											
CC(=O)CC(=O)CCCC(=O)Nc1ccc(Cl)cc1Cl	> 100 µM	> 100	> 100 µM	> 100 µM	> 100 µM			> 100 µM	> 100 µM											
CC(=O)C(C(=N)C#N)C(=O)Nc1ccccc1 (stereo unspecified)		> 100	> 100 µM	> 100 µM	> 100 µM	> 100 µM	> 100		> 100 µM	> 100										
Cc1ccc(C)c(NC(=O)CC2C(=O)Nc3ccccc3S2(=O)=O)c1 (stereo unspecified)	> 100 µM	> 100	> 100 µM	> 100 µM	82.5 µM	> 100 µM	> 100	> 100 µM												
CCOC(=O)c1sc2ncn(Cc3cccc(Cl)c3)c(=O)c2c1C		24.8	27.8 µM	31.2 µM	33.4 µM	25.6 µM	31	31.9 µM	37.9 µM	31.5	17.7	17.3	18	12.3 µM	13.7	14.6	12.9 µM		17.4	19.3
O=C1C(c2ccc(Cl)cc2)=[N+]([O-])c2ccccc21	> 100 µM	68.5	27.7 µM	48.7 µM	36 µM	31.5 µM	28.9	24 µM	29.7 µM											
O=[N+]([O-])c1ccc(OCCNc2cccc3ccccc23)cc1	> 100 µM	> 100		> 100 µM	> 100 µM	> 100 µM	> 100		> 100 µM											
C=CC[P@@]1(=O)O[C@H](c2ccccc2)C(C)N1C(C)C (stereo partly specified)	> 100 µM	> 100	> 100 µM	> 100 µM	> 100 µM	> 100 µM	> 100	> 100 µM	> 100 µM											
COC(=O)[C@H](C)[C@H]1CC[C@@](C)([C@H]2CC3C(C)(C)[C@H]4CCC(C)=C[C@H]4C[C@@]3(C)O2)OO1 (stereo partly specified)	18.7 µM	24.2	3.5 µM	26.2 µM	28.4 µM	26.1 µM	27.6	5.57 µM	25.7 µM											
COc1cc2c3c(n(CCCO)c(=O)c2cc1OC)-c1cc2c(cc1C3=O)OCO2		> 47	22.9 µM	> 100 µM	6.79 µM	27.8 µM	> 100	10.4 µM	> 100 µM	> 44.3	3.22	54.7	2.34	6.96 µM	27.7	2.89	2.63 µM		> 79.2	
CC1=C2C(=CC(C)(CO)C2O)C(=O)C(C)(O)C12CC2 (stereo unspecified)	0.00903 µM	0.105	0.00992 µM	0.0258 µM	0.0152 µM	0.0211 µM	0.0335	0.00697 µM	0.0219 µM											
CC1(c2ccccc2)CC12C(=O)NC(=O)NC2=O (stereo unspecified)	> 100 µM	> 100	> 100 µM	> 100 µM	> 100 µM	> 100 µM	> 100	> 100 µM	> 100 µM											
COc1cccc(/C=C\c2cc(OC)c(OC)c(OC)c2)c1	69.5 µM	43.7		63.6 µM	> 100 µM	23 µM	> 100		> 100 µM											
Cc1c2cc[n+](C)cc2c(C)c2c1[nH]c1ccc(OC(C)C)cc12	9.95 µM and 20 µM	> 46.4	21.4 µM and 26.2 µM	> 100 µM and 67.3 µM	9.82 µM and 12.5 µM	2.93 µM and 9.46 µM	> 100	11.2 µM and 39.9 µM	13.3 µM and 11.4 µM					1.02 µM and 2.55 µM			0.145 µM and 0.39 µM	2.87 µM and 6.45 µM		
Cc1ccc(C2=[N+]([O-])c3ccccc3C2=O)cc1	> 100 µM	41	31.2 µM	> 89.9 µM	77.7 µM	44.9 µM	51.7	33.6 µM	50.9 µM											
O=C(O)CSCC(=O)c1ccccc1		> 100	> 100 µM	> 100 µM	> 100 µM	> 100 µM	> 100	> 100 µM	> 100 µM	> 100										
N#C[C@]12CC3(CC[C@H]1CC1(C2)OCCO1)OCCO3	> 100 µM	> 100			> 100 µM	> 100 µM		> 100 µM	> 100 µM											
N.N.NCCCCN.O=C([O-])CC(=O)[O-].O=C([O-])CC(=O)[O-].[Pt+4].[Pt+4]	> 100 µM	> 100	> 100 µM	> 100 µM	> 100 µM	> 100 µM	> 100	> 100 µM	> 100 µM			> 100	11.5	> 100 µM	> 100	78.3	48.5 µM	97.3 µM	> 100	76.4
O=C(O)C(Cc1ccccc1-c1ccccc1)C(=O)O		> 100	> 100 µM	> 100 µM	> 100 µM	> 100 µM	> 100		> 100 µM	> 100										
